Results on 19 compounds are retold here after EP3057951B1, “METHYLENE LINKED QUINOLINYL MODULATORS OF ROR-GAMMA-T” (Janssen Pharmaceutica NV, priority 2013, dated 2015).

Several values for one entry are separate records, joined by “and”; a condition that tells them apart may be missing. Identical values can stand only once. Counter-ions that a name gives are not always drawn. Like-named read-outs stand apart in the source and are kept apart here. Some results are limits rather than exact numbers.

By Kd is commonly meant the constant that tells how readily two partners part at equilibrium. Broadly, the IC50 is the concentration that inhibits the measured activity by half. High values mean a need for much substance, low ones inhibition by little substance.

In assay [1] the target is T1, wild type human RORγt ligand binding domain (RORyt LBD) (Homo sapiens, UniProt P51449).
T1 construct: His-tag (N); TurboTEV protease cleavage site (ENLYFQG) (N); made in house; host or cells: E. coli (pHIS1, modified pET vector)
T1 sequence (P51449 258-518): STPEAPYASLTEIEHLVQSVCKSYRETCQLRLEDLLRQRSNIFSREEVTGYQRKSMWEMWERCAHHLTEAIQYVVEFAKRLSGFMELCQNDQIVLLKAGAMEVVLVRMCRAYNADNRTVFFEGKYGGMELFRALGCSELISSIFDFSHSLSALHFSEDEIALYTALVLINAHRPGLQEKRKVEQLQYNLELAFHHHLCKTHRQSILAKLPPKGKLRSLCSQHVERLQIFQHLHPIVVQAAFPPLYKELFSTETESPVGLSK
Put plainly: RORγt ThermoFluor assay (thermal shift, binding affinity KD). (In general: DSF heats the sample and reads unfolding from a dye or from intrinsic fluorescence.)

Assay [2] concerns the target T2, wild type human RORγt LBD (Homo sapiens, UniProt P51449).
T2 construct: expressed in transfected cells; host or cells: HEK293T
T2 sequence (P51449 258-518): T1 sequence (P51449 258-518)
The assay can be described thus: RORγt (LBD) Reporter Assay (GAL4-luciferase, HEK293T cells). The class given is cell-based. To be noted: for RORγt (LBD) Reporter Assay, % inhibition @ 6 µM: 6 µM compound concentration; for inhibition at 6 µM: HEK-293T, read-out: RORγt (LBD) Reporter Assay, % inhibition @ 6 µM, 6 µM compound concentration. For orientation: In a reporter assay the amount or activity of a reporter protein is the signal.

Setting [3] is: HEK293T cells, value after the comma with ∼, > or < could not be included in the average.

For `Cc1cc(C(O)(c2ccc(Cl)cc2)c2cncn2C)cc2c(Cl)c(Cc3ccc(-n4cccn4)cc3)c(N3CCC3)nc12` (single isomer, unassigned) [Example 136c, {2-Azetidin-1-yl-4-chloro-8-methyl-3-[4-(1H-pyrazol-1-yl)benzyl]quinolin-6-yl}(4-chlorophenyl)(1-methyl-1H-imidazol-5-yl)methanol], the Kd in assay [1] worked out at 19 nM. In assay [2] (HEK293T cells), the “RORγt (LBD) Reporter Assay, % inhibition @ 6 µM” value (“RORγt … % inhibition @ 6 µM” for short) amounted to 97% and inhibition was half-maximal at 140 nM (IC50).
Turning to `COc1nc2ccc(C(O)(c3ccc(F)cc3)C3CCN(C(C)=O)CC3)cc2c(Cl)c1Cc1ccc(-n2cccn2)cc1` (single isomer, unassigned) [Example 157c, 1-(4-((3-(4-(1H-Pyrazol-1-yl)benzyl)4-chloro-2-methoxyquinolin-6-yl)(4-fluorophenyl)(hydroxy)methyl)piperidin-1-yl)ethanone], the Kd in assay [1] was 110 nM. In assay [2] (HEK293T cells), the “RORγt … % inhibition @ 6 µM” value was determined as 99% and the IC50 turned out to be 160 nM.
For `Cn1cncc1C(O)(c1ccc(C(F)(F)F)nc1)c1ccc2nc(N3CC(F)(F)C3)c(Cc3ccc(-n4cccn4)cc3)c(Cl)c2c1` (single isomer, unassigned) [Example 135b, {4-Chloro-2-(3,3-difluoroazetidin-1-yl)-3-[4-(1H-pyrazol-1-yl)benzyl]quinolin-6-yl}(1-methyl-1H-imidazol-5-yl)[6-(trifluoromethyl)pyridin-3-yl]methanol], the dissociation constant (Kd) in assay [1] was found to be 160 nM. For the same compound, in assay [2] (HEK293T cells), the half-inhibitory concentration (IC50) was found to be 260 nM and the inhibition at 6 µM stood at 99%.
Take `COc1nc2ccc(C(O)(c3ccc(Cl)cc3)c3cccnc3)cc2c(Cl)c1Cc1ccc(-n2cccn2)cc1` (stereo not drawn) [Example 62, (3-(4-(1H-pyrazol-1-yl)benzyl)4-chloro-2-methoxyquinolin-6-yl)(4-chlorophenyl)(pyridin-3-yl)methanol]: the Kd in assay [1] is 41 nM. In assay [2] (setting [3]), the IC50 is 120 nM. For the same compound, in assay [2], the inhibition at 6 µM came to 107%.
Regarding `COc1nc2ccc(C(O)(c3ccc(C)nc3C)c3cnnn3C)cc2c(C#N)c1Cc1ccc(C(F)(F)F)nc1` (stereo not drawn) [Example 41a, 6-((2,6-Dimethylpyridin-3-yl)(hydroxy)(1-methyl-1H-1,2,3-triazol-5-yl)methyl)-2-methoxy-3-((6-(trifluoromethyl)pyridin-3-yl)methyl)quinoline-4-carbonitrile], in assay [1], the dissociation constant (Kd) was determined as 2.8 nM. This compound came in with a concentration for half-maximal inhibition (IC50) in assay [2] (setting [3]) of 24 nM. Further, the inhibition at 6 µM in assay [2] was found to be 99%.
Turning to `Cn1cc(-c2nc3ccc(C(O)(c4ccc(C(F)(F)F)nc4)c4cncn4C)cc3c(C#N)c2Cc2ccccc2)cn1` (single isomer, unassigned) [Example 112c, 3-Benzyl-6-(hydroxy(1-methyl-1H-imidazol-5-yl)(6-(trifluoromethyl)pyridin-3-yl)methyl)-2-(1-methyl-1H-pyrazol-4-yl)quinoline-4-carbonitrile], in assay [1], the Kd was determined as 13000 nM. Further, the “RORγt … % inhibition @ 6 µM” value in assay [2] stood at 71%. In addition, the IC50 in assay [2] (setting [3]) is around 5000 nM.
With `CCc1nc2ccc(C(O)(c3ccc(C)nc3C)c3cnnn3C)cc2c(Cl)c1Cc1ccc(C(F)(F)F)cc1` (single isomer, unassigned) [Example 23b, (4-Chloro-2-ethyl-3-(4-(trifluoromethyl)benzyl)quinolin-6-yl)(2,6-dimethylpyridin-3-yl)(1-methyl-1H-1,2,3-triazol-5-yl)methanol], the Kd in assay [1] stood at 82 nM. Also, in assay [2] (setting [3]), 200 nM corresponded to half-maximal inhibition (IC50). Besides, the inhibition at 6 µM in assay [2] worked out at 94%.
In the case of `CCc1nc2ccc(C(O)(c3cnnn3C)c3cnc(C)n3C)cc2c(Cl)c1Cc1ccc(C(F)(F)F)cc1` (single isomer, unassigned) [Example 25c, (4-Chloro-2-ethyl-3-(4-(trifluoromethyl)benzyl)quinolin-6-yl)(1,2-dimethyl-1H-imidazol-5-yl)(1-methyl-1H-1,2,3-triazol-5-yl)methanol], the dissociation constant (Kd) in assay [1] was determined as 0.02 nM. In assay [2], the “RORγt … % inhibition @ 6 µM” value amounted to 99%. In assay [2] (setting [3]), the concentration for half-maximal inhibition (IC50) was 2.1 nM.
As to `Cn1cncc1C(O)(c1ccc2nc(Cl)c(Cc3ccc(-n4cccn4)cc3)c(Cl)c2c1)c1ncccn1` (stereo not drawn) [Example 130, {2,4-Dichloro-3-[4-(1H-pyrazol-1-yl)benzyl]quinolin-6-yl}(1-methyl-1H-imidazol-5-yl)pyrimidin-2-ylmethanol.TFA], the dissociation constant (Kd) in assay [1] was 640 nM. Moreover, in assay [2] (HEK293T cells), the IC50 was found to be 510 nM and the inhibition at 6 µM worked out at 94%.
For `COc1nc2ccc(C(O)(c3cccnc3)c3ccc(Cl)c(Cl)c3)cc2c(Cl)c1Cc1ccc(-n2cccn2)cc1` (single isomer, unassigned) [Example 161b, (3-(4-(1H-Pyrazol-1-yl)benzyl)-4-chloro-2-methoxyquinolin-6-yl)(3,4-dichlorophenyl)(pyridin-3-yl)methanol], in that order: 280 nM, 160 nM and 108%.
For `COc1nc2ccc(C(O)(c3cnnn3C)C3CCN(C(C)=O)CC3)cc2c(Cl)c1Cc1ccc(C(F)(F)F)cc1` (single isomer, unassigned) [Example 74b, 1-(4-((4-Chloro-2-methoxy-3-(4-(trifluoromethyl)benzyl)quinolin-6-yl)(hydroxy)(1-methyl-1H-1,2,3-triazol-5-yl)methyl)piperidin-1-yl)ethanone], in assay [1], the Kd was 5 nM. Moreover, the half-inhibitory concentration (IC50) in assay [2] (setting [3]) came out at 15 nM. For the same compound, in assay [2], the inhibition at 6 µM was 102%.
As for `COc1nc2ccc(C(O)(c3cccnc3)c3cccc(F)c3)cc2c(Cl)c1Cc1ccc(-n2cccn2)cc1` (stereo not drawn) [Example 61, (3-(4-(1H-Pyrazol-1-yl)benzyl)4-chloro-2-methoxyquinolin-6-yl)(3-fluorophenyl)(pyridin-3-yl)methanol], the Kd in assay [1] was 12 nM. Half-maximal inhibition in assay [2] (setting [3]) (IC50) was put at 83 nM. Also, the inhibition at 6 µM in assay [2] worked out at 99%.
As to `Cn1cncc1C(O)(c1ccc2nc(C(F)(F)F)c(Cc3ccccc3)c(C#N)c2c1)c1ccccn1` (single isomer, unassigned) [Example 99c, 3-Benzyl-6-(hydroxy(1-methyl-1H-imidazol-5-yl)(pyridin-2-yl)methyl)-2-(trifluoromethyl)quinoline-4-carbonitrile], in assay [1], the Kd stood at 12 nM. Besides, the “RORγt … % inhibition @ 6 µM” value in assay [2] stood at 97%. Further, the concentration for half-maximal inhibition (IC50) in assay [2] (setting [3]) stood at 20 nM.
`Cn1cncc1C(O)(c1ccc(C#N)cc1)c1ccc2nc(C(F)(F)F)c(Cc3ccccc3)c(C#N)c2c1` (stereo not drawn) [Example 104, 3-Benzyl-6-((4-cyanophenyl)(hydroxy)(1-methyl-1H-imidazol-5-yl)methyl)-2-(trifluoromethyl)quinoline-4-carbonitrile•TFA]: the Kd in assay [1] was 6.3 nM. Half-maximal inhibition in assay [2] (setting [3]) (IC50) was put at 19 nM. Besides, the inhibition at 6 µM in assay [2] stood at 82%.
Regarding `CN(C)c1nc2ccc(C(O)(c3ccc(C(F)(F)F)nc3)c3cncn3C)cc2c(Cl)c1Cc1ccc(-n2cccn2)cc1` (stereo not drawn) [Example 132, {4-Chloro-2-(dimethylamino)-3-[4-(1H-pyrazol-1-yl)benzyl]quinolin-6-yl}(1-methyl-1H-imidazol-5-yl)[6-(trifluoromethyl)pyridin-3-yl]methanol], the equilibrium dissociation constant (Kd) in assay [1] turned out to be 36 nM. Moreover, in assay [2] (HEK293T cells), inhibition was half-maximal at 45 nM (IC50) and the inhibition at 6 µM came out at 108%.
Turning to `COc1nc2ccc(C(O)(c3cncn3C)C3CCOCC3)cc2c(C#N)c1Cc1ccc(-n2cccn2)cc1` (stereo not drawn) [Example 2b, 3-(4-(1H-Pyrazol-1-yl)benzyl)-6-(hydroxy(1-methyl-1H-imidazol-5-yl)(tetrahydro-2H-pyran-4-yl)methyl)-2-methoxyquinoline-4-carbonitrile], the dissociation constant Kd in assay [1] amounted to 110 nM. In assay [2] (setting [3]), this compound yielded a half-maximal inhibitory concentration (IC50) of 130 nM. Further, the inhibition at 6 µM in assay [2] was found to be 101%.
For the compound `COc1nc2ccc(C(O)(c3ccc(C)nc3C)c3cncn3C)cc2c(Cl)c1Cc1ccc(C(F)(F)F)cc1` (racemic) [Example 88a, (4-Chloro-2-methoxy-3-(4-(trifluoromethyl)benzyl)quinolin-6-yl)(2,6-dimethylpyridin-3-yl)(1-methyl-1H-imidazol-5-yl)methanol], in assay [1], the equilibrium dissociation constant (Kd) turned out to be 0.3 nM. Besides, in assay [2] (setting [3]), the IC50 is 4.2 nM and ~20 nM. For the same compound, the inhibition at 6 µM in assay [2] amounted to 98%.
With `COc1nc2ccc(C(O)(c3ccc(F)cc3)C3CCN(C(C)=O)CC3)cc2c(Cl)c1Cc1ccc(-n2cccn2)cc1` (single isomer, unassigned) [Example 157b, 1-(4-((3-(4-(1H-Pyrazol-1-yl)benzyl)4-chloro-2-methoxyquinolin-6-yl)(4-fluorophenyl)(hydroxy)methyl)piperidin-1-yl)ethanone], in assay [1], the Kd is 1.7 nM. Moreover, in assay [2] (HEK293T cells), the IC50 was 34 nM and the inhibition at 6 µM was determined as 102%.
`Cc1ccc(C(O)(c2ccc3nc(N4CCC4)c(Cc4ccc(-n5cccn5)cc4)c(Cl)c3c2)c2cnnn2C)c(C)n1` (single isomer, unassigned) [Example 141b, {2-Azetidin-1-yl-4-chloro-3-[4-(1H-pyrazol-1-yl)benzyl]quinolin-6-yl}(2,6-dimethylpyridin-3-yl)(1-methyl-1H-1,2,3-triazol-5-yl)methanol]: the Kd in assay [1] amounted to 17000 nM. In assay [2] (HEK293T cells), the “RORγt … % inhibition @ 6 µM” value is 20% and the IC50 is above 6000 nM.
